Tested on: 922993-354-T-J3-PDC complex spheroids, viability
Experiment: Anticancer human tumor 922993-354-T-J3-PDC patient-derived endometrial carcinoma cell line growth inhibition [GQUAD]
Conditions: for IC50: curve of first compound; for viability, T/C: stronger effect = lower value; active = viability on the fitted dose curve at most 10% of control; inactive = the rest
Text: DNA G-quadruplex Stabilizer Agents in Combinations in Complex Spheroids
A high-throughput screen of multi-cell type tumor spheroids was designed to identify active combinations of DNA G-quadruplex stabilizer agents and targeted small molecules. Complex spheroids include a stromal component modeled by human endothelial cells (HUVEC) and fibroblasts modeled by human mesenchymal stem cells (MSCs). The concentration ranges selected for each drug and investigational agent were based upon clinically achievable concentrations if the clinical Cmax of the agent was known.
Compounds. The drugs and investigational agents: pidnarulex (CX-5461; NSC782164), APTO-253 (NSC789042), BRACO-19 (NSC847499), peposertib (NSC802822), ceralasertib (NSC780249), elimusertib (NSC800525), camonsertib (NSC841442), AZD-1390 (NSC803789), olaparib (NSC753686), talazoparib (NSC767125), ART-558 (NSC835418), sotorasib (NSC818433), MRTX-1133 (NSC836407), SN-38 (NSC673596), topotecan (NSC609699), etoposide (NSC141540), doxorubicin (NSC123127), gemcitabine (NSC613327), 5-fluorouracil (NSC19893), paclitaxel (NSC125973), vemurafenib (NSC761431), panobinostat (NSC761190), R-306465 (JNJ-16241199; NSC773264), adavosertib (NSC754352), TP-3654 (NSC805149), carboplatin (NSC241240), KSQ-4279 (NSC840948), and staurosporine (NSC755774) were obtained from the National Cancer Institute (NCI) Developmental Therapeutics Program Chemical Repository (34). The FDA-approved anticancer drug set is available from the NCI Developmental Therapeutics Program. […] The stock solutions were prepared in dimethyl sulfoxide (DMSO, Sigma-Aldrich, St. Louis, MO, cat. D2650) at 800-fold the tested concentration and stored at -70 degrees C prior to their use. All drugs and investigational agents were tested over a range starting from a high concentration at or near the clinical Cmax and decreasing in half-log increments. If the clinical Cmax for an agent had not been determined, the highest concentration tested was 10 microM.
2.3 Cell Culture. All cells were maintained in an incubator at 37 degrees C and 5% CO2 with 95% humidity. The PDC lines were cultured according to standard operating procedures established by the NCI PDMR. All PDCs were thawed and cultured in Matrigel-coated flasks prepared with a working solution of 1X Ham's F-12 nutrient mix, without supplementation (Invitrogen, cat. 11765054), 100 U/mL penicillin-streptomycin (Invitrogen, cat. 15140122), and 2.5% Matrigel (Corning Inc., cat. 354248) for the first three passages. The 857933-349-R-J2-PDC line was cultured in 6C/Colon 1B media, which includes advanced DMEM/F-12 (Thermo Fisher Scientific, cat. 12634028), 10 mM HEPES (Thermo Fisher Scientific, cat. 15630080), 1X GlutaMAX supplement (Thermo Fisher Scientific, cat. 35050061), 0.1 mg/mL primocin (InvivoGen, cat. ant-pm-2), 10% defined fetal bovine serum, heat inactivated (HyClone Laboratories Inc., cat. SH30070.03HI), 50% L-WRN conditioned media (ATCC, cat. CRL-3276), 1.25 mM N-Acetyl-L-cysteine (Sigma-Aldrich, cat. A9165), 10 mM nicotinamide (Sigma-Aldrich, cat. N0636), 1X B-27 supplement (Thermo Fisher Scientific, cat. 17504044), 1X N-2 supplement (Thermo Fisher Scientific, cat. 17502048), 10 microM Y-27632 dihydrochloride (Tocris Bioscience, cat. 1254), and 50 ng/mL human EGF recombinant protein (Thermo Fisher Scientific, cat. PHG0311). The 485176-168-R4-J1-PDC line was cultured in Panc media, which includes all 6C/Colon 1B media components plus 100 ng/mL human FGF-10 (Thermo Fisher Scientific, cat. 100-26), 500 nM SB-431542 (Selleckchem, cat. S1067), and gastrin (Tocris, cat. 3006).
[…]
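Also: spheroids exposed to compounds for seven days.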

CC1COCCN1c1cc(C2(O)CC3CCC(C2)O3)c2cnn(-c3ccn[nH]3)c2n1 (configuration not stated) + CN(C)c1ccc(Nc2c3ccc(NC(=O)CCN4CCCC4)cc3nc3cc(NC(=O)CCN4CCCC4)ccc23)cc1
906 nM: IC50 (second compound 10 µM)
inactive: viability, T/C (second compound 0.0316 µM, first compound 0.0316 µM) 124% | viability, T/C (second compound 0.0316 µM, first compound 0.1 µM) 78.8% | viability, T/C (second compound 0.0316 µM, first compound 0.316 µM) 67% | viability, T/C (second compound 0.0316 µM, first compound 1 µM) 29.4% | viability, T/C (second compound 0.0316 µM, first compound 3.16 µM) 23.3% | viability, T/C (second compound 0.0316 µM, first compound 10 µM) 18.4% | viability, T/C (second compound 0.1 µM, first compound 0.0316 µM) 82.8% | viability, T/C (second compound 0.1 µM, first compound 0.1 µM) 82.2% | viability, T/C (second compound 0.1 µM, first compound 0.316 µM) 68.2% | viability, T/C (second compound 0.1 µM, first compound 1 µM) 29.8% | viability, T/C (second compound 0.1 µM, first compound 3.16 µM) 21.3% | viability, T/C (second compound 0.1 µM, first compound 10 µM) 22% | viability, T/C (second compound 0.316 µM, first compound 0.0316 µM) 112% | viability, T/C (second compound 0.316 µM, first compound 0.1 µM) 86.1% | viability, T/C (second compound 0.316 µM, first compound 0.316 µM) 66.4% | viability, T/C (second compound 0.316 µM, first compound 1 µM) 27.3% | viability, T/C (second compound 0.316 µM, first compound 3.16 µM) 22.1% | viability, T/C (second compound 0.316 µM, first compound 10 µM) 19.7% | viability, T/C (second compound 1 µM, first compound 0.0316 µM) 98.6% | viability, T/C (second compound 1 µM, first compound 0.1 µM) 102% | viability, T/C (second compound 1 µM, first compound 0.316 µM) 70.5% | viability, T/C (second compound 1 µM, first compound 1 µM) 47.3% | viability, T/C (second compound 1 µM, first compound 3.16 µM) 20.2% | viability, T/C (second compound 1 µM, first compound 10 µM) 19.7% | viability, T/C (second compound 3.16 µM, first compound 0.0316 µM) 127% | viability, T/C (second compound 3.16 µM, first compound 0.1 µM) 79.7% | viability, T/C (second compound 3.16 µM, first compound 0.316 µM) 65.5% | viability, T/C (second compound 3.16 µM, first compound 1 µM) 39.4% | viability, T/C (second compound 3.16 µM, first compound 3.16 µM) 21.5% | viability, T/C (second compound 3.16 µM, first compound 10 µM) 25.4% | viability, T/C (second compound 10 µM, first compound 0.0316 µM) 115% | viability, T/C (second compound 10 µM, first compound 0.1 µM) 113% | viability, T/C (second compound 10 µM, first compound 0.316 µM) 86.4% | viability, T/C (second compound 10 µM, first compound 1 µM) 48.8% | viability, T/C (second compound 10 µM, first compound 3.16 µM) 21.7% | viability, T/C (second compound 10 µM, first compound 10 µM) 25.2%
483 nM: IC50 (second compound 0.316 µM)
520 nM: IC50 (second compound 3.16 µM)
545 nM: IC50 (second compound 0.1 µM)
784 nM: IC50 (second compound 1 µM)
456 nM: IC50 (second compound 0.0316 µM)

— PubChem BioAssay AID2060489 (Molecular Pharmacology Branch, DTP, NCI, 2025)
